How the values were obtained:
Test in all cases: relative viability (nuclei count vs DMSO), 5 days (fraction); higher = more cells survive
PAC-1 + Alpelisib = compound: C=CCc1cccc(/C=N/NC(=O)CN2CCN(Cc3ccccc3)CC2)c1O [PAC-1] + Cc1nc(NC(=O)N2CCC[C@H]2C(N)=O)sc1-c1ccnc(C(C)(C)C(F)(F)F)c1 [Alpelisib] (partner 2 µM)
Procedure, shortened: (§1)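 Lung cancer cell lines in 1536-well plates were dosed by pin tool the day after seeding, either with one drug alone or with a fixed anchor-drug dose plus five library-drug doses (not always all listed) in √10 steps. After 5 days, cells were fixed and their nuclei stained in one step (final 0.05% Triton X-100, 1% formaldehyde, 1 ug/ml Hoechst), then counted on 4× images. Relative viability is the nuclei count in treated wells divided by that in vehicle wells. Values are medians of duplicate plates.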

PAC-1 + Foretinib = compound: C=CCc1cccc(/C=N/NC(=O)CN2CCN(Cc3ccccc3)CC2)c1O [PAC-1] + COc1cc2c(Oc3ccc(NC(=O)C4(C(=O)Nc5ccc(F)cc5)CC4)cc3F)ccnc2cc1OCCCN1CCOCC1 [Foretinib] (partner 0.25 µM)
Procedure, shortened: as §1

PAC-1 + OSI-027 = compound: C=CCc1cccc(/C=N/NC(=O)CN2CCN(Cc3ccccc3)CC2)c1O [PAC-1] + COc1cccc2cc(-c3nc([C@H]4CC[C@H](C(=O)O)CC4)n4ncnc(N)c34)[nH]c12 [OSI-027] (partner 0.5 µM)
Procedure, shortened: as §1

PAC-1 + Tozasertib = compound: C=CCc1cccc(/C=N/NC(=O)CN2CCN(Cc3ccccc3)CC2)c1O [PAC-1] + Cc1cc(Nc2cc(N3CCN(C)CC3)nc(Sc3ccc(NC(=O)C4CC4)cc3)n2)n[nH]1 [Tozasertib] (partner 0.1 µM)
Procedure, shortened: as §1

PAC-1 + Crizotinib = compound: C=CCc1cccc(/C=N/NC(=O)CN2CCN(Cc3ccccc3)CC2)c1O [PAC-1] + C[C@@H](Oc1cc(-c2cnn(C3CCNCC3)c2)cnc1N)c1c(Cl)ccc(F)c1Cl [Crizotinib] (partner 1 µM)
Procedure, shortened: as §1

Row | Cell Line | relative viability (PAC-1 + Alpelisib; first compound 0.02 µM) | relative viability (PAC-1 + Alpelisib; first compound 0.06325 µM) | relative viability (PAC-1 + Alpelisib; first compound 0.2 µM) | relative viability (PAC-1 + Alpelisib; first compound 2 µM) | relative viability (PAC-1 + Foretinib; first compound 0.02 µM) | relative viability (PAC-1 + Foretinib; first compound 0.06325 µM) | relative viability (PAC-1 + Foretinib; first compound 0.2 µM) | relative viability (PAC-1 + Foretinib; first compound 2 µM) | relative viability (PAC-1 + OSI-027; first compound 0.02 µM) | relative viability (PAC-1 + OSI-027; first compound 0.06325 µM) | relative viability (PAC-1 + OSI-027; first compound 0.2 µM) | relative viability (PAC-1 + OSI-027; first compound 2 µM) | relative viability (PAC-1 + Tozasertib; first compound 0.02 µM) | relative viability (PAC-1 + Tozasertib; first compound 0.06325 µM) | relative viability (PAC-1 + Tozasertib; first compound 0.2 µM) | relative viability (PAC-1 + Tozasertib; first compound 2 µM) | relative viability (PAC-1 + Crizotinib; first compound 0.02 µM) | relative viability (PAC-1 + Crizotinib; first compound 0.06325 µM) | relative viability (PAC-1 + Crizotinib; first compound 0.2 µM) | relative viability (PAC-1 + Crizotinib; first compound 2 µM)
1 | NCI-H2405 | 0.811 | 0.9 | 0.774 | 0.873 | 1.04 | 1.04 | 1.02 | 1.1 | 0.65 | 0.638 | 0.598 | 0.71 | 0.688 | 0.737 | 0.74 | 0.786 | 0.862 | 0.829 | 0.818 | 0.862
2 | EBC-1 | 0.769 | 0.808 | 0.736 | 0.809 | 0.105 | 0.0969 | 0.139 | 0.121 | – | – | – | – | – | – | – | – | 0.194 | 0.175 | 0.201 | 0.178
3 | NCI-H1734 | 0.662 | 0.664 | 0.748 | 0.642 | 0.759 | 0.779 | 0.762 | 0.759 | 0.607 | 0.589 | 0.522 | 0.642 | 0.199 | 0.256 | 0.23 | 0.267 | 0.698 | 0.627 | 0.659 | 0.766
4 | NCI-H2087 | 1.07 | 1.02 | 1 | 1.1 | 0.787 | 1.22 | 0.959 | 1.18 | 0.467 | 0.58 | 0.401 | 0.497 | 0.197 | 0.252 | 0.281 | 0.259 | 0.995 | 0.966 | 0.728 | 0.68
5 | NCI-H1563 | 0.98 | 0.935 | 0.922 | 1.02 | 0.928 | 1 | 0.976 | 0.935 | 0.757 | 0.814 | 0.742 | 0.753 | – | – | – | – | 0.851 | 0.801 | 0.784 | 0.969
6 | SW 900 | – | – | – | – | 1.14 | 0.976 | 0.864 | 0.717 | 0.69 | 0.828 | 0.572 | 0.496 | 0.581 | 0.61 | 0.473 | 0.465 | – | – | – | –
7 | A549 | 0.718 | 0.727 | 0.694 | 0.707 | 0.952 | 0.964 | 1.04 | 1.01 | – | – | – | – | – | – | – | – | 0.747 | 0.793 | 0.706 | 0.77
8 | NCI-H1793 | 0.681 | 0.615 | 0.894 | 0.621 | 0.651 | 0.504 | 0.646 | 0.559 | 0.249 | 0.277 | 0.311 | 0.247 | 0.316 | 0.338 | 0.439 | 0.238 | – | – | – | –
9 | EKVX | 0.788 | 0.956 | 0.801 | 0.899 | 0.886 | 0.792 | 0.69 | 0.427 | 0.744 | 0.674 | 0.696 | 0.702 | 0.426 | 0.393 | 0.339 | 0.365 | 1.19 | 1.22 | 0.893 | 0.866
10 | NCI-H2126 | 0.756 | 0.729 | 0.717 | 0.703 | 1.28 | 1.25 | 1.15 | 1.12 | 0.725 | 0.717 | 0.712 | 0.687 | 0.919 | 0.829 | 0.82 | 0.821 | 1.03 | 1.02 | 1.05 | 1
11 | NCI-H1993 | 0.701 | 0.645 | 0.678 | 0.672 | 0.718 | 0.746 | 0.608 | 0.826 | 0.485 | 0.576 | 0.634 | 0.545 | 0.635 | 0.541 | 0.469 | 0.548 | 0.811 | 0.831 | 0.626 | 0.743
12 | EPLC-272H | – | 0.96 | 0.817 | 0.764 | 0.605 | 0.683 | 0.68 | 0.721 | 0.312 | 0.27 | 0.22 | 0.262 | 0.257 | 0.314 | 0.273 | 0.278 | – | 0.95 | 0.789 | 0.818
13 | LU99A | 0.528 | 0.508 | 0.495 | 0.472 | 0.91 | 0.854 | 0.818 | 0.774 | 0.303 | 0.314 | 0.257 | 0.3 | 0.309 | 0.254 | 0.247 | 0.286 | 0.618 | 0.581 | 0.515 | 0.544
14 | NCI-H1299 | 1.06 | 1 | 1.02 | 1.01 | 1.14 | 1.04 | 1.04 | 1.06 | – | – | – | – | – | – | – | – | 0.936 | 0.94 | 0.937 | 0.891
15 | HCC-78 | 0.308 | 0.373 | 0.368 | 0.303 | 0.522 | 0.591 | 0.634 | 0.589 | 0.336 | 0.335 | 0.376 | 0.396 | 0.486 | 0.399 | 0.496 | 0.342 | 0.343 | 0.34 | 0.362 | 0.337
16 | HCC-15 | 0.924 | 0.831 | 0.854 | 0.851 | 0.993 | 1.08 | 0.985 | 1.04 | 0.668 | 0.726 | 0.672 | 0.684 | 0.398 | 0.458 | 0.449 | 0.378 | 0.788 | 0.878 | 0.785 | 0.82
17 | 201T | 0.935 | 1 | 1.03 | 1.01 | 0.998 | 1.22 | 1.15 | 1.11 | 0.702 | 0.754 | 0.848 | 0.839 | 0.876 | 1 | 0.956 | 0.883 | 1.07 | 1.09 | 1.02 | 1.05
